According to PMC8550792, “Evolution of kinase polypharmacology across HSP90 drug discovery” (Cell Chemical Biology, 2021):

Legend:
Assay in all cases: biochemical
Format in all cases: biochemical
[1] = target: T1, 382 unique human kinases (Homo sapiens, UniProt O00238); conditions: kinase ALK6/BMPR1B, compound 10 uM; for remaining activity at 10 µM: read-out: % Enzyme Activity (relative to DMSO controls)
T1 construct: purchased Reaction Biology (HotSpot contract assay)

[2] = target: T2, 382 unique human kinases (Homo sapiens, UniProt Q8NE63); conditions: HIPK4, 10 uM; for remaining activity at 10 µM: read-out: % Enzyme Activity (relative to DMSO controls)
T2 construct: purchased Reaction Biology (HotSpot contract assay)
T2 sequence (Q8NE63 1-616): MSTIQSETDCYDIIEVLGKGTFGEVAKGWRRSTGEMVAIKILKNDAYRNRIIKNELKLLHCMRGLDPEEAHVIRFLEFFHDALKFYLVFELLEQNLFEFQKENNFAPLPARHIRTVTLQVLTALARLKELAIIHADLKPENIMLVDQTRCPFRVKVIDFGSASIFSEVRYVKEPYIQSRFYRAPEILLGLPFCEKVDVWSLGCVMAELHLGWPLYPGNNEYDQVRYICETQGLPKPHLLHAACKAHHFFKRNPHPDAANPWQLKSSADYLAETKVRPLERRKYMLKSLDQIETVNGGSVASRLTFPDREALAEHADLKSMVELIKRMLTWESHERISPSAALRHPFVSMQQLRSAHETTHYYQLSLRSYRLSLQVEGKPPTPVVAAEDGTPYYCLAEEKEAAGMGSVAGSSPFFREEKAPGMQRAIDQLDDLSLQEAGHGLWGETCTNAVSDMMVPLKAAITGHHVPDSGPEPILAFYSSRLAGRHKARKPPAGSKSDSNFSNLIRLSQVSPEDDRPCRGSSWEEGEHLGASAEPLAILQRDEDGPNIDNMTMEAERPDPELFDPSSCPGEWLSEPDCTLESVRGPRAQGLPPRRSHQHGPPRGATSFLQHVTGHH

[3] = target: T3, 382 unique human kinases (Homo sapiens, UniProt P53779); conditions: JNK3, compound at 10 uM, duplicate values; for remaining activity at 10 µM: read-out: % Enzyme Activity (relative to DMSO controls)
T3 construct: purchased Reaction Biology (HotSpot contract assay)
T3 sequence (P53779 whole entry): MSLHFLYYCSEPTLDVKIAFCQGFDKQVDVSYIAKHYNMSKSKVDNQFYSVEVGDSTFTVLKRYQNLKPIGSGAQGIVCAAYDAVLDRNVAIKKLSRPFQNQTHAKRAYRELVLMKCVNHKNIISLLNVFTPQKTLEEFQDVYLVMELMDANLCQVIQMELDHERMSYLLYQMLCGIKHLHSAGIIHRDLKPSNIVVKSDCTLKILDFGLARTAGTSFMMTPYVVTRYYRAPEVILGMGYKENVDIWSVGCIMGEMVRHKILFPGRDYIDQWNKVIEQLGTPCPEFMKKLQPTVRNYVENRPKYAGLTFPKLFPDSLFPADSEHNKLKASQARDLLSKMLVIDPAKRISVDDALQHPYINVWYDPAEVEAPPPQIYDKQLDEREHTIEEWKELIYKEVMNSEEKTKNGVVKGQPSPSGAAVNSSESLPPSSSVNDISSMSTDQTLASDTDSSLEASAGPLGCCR

[4] = target: T4, 382 unique human kinases (Homo sapiens, UniProt P10721, T670I/V559D); conditions: c-Kit (V559D/T670I), 10 uM; for remaining activity at 10 µM: read-out: % Enzyme Activity (relative to DMSO controls)
T4 construct: purchased Reaction Biology (HotSpot contract assay)
T4 sequence (P10721 26-976 V559D/T670I): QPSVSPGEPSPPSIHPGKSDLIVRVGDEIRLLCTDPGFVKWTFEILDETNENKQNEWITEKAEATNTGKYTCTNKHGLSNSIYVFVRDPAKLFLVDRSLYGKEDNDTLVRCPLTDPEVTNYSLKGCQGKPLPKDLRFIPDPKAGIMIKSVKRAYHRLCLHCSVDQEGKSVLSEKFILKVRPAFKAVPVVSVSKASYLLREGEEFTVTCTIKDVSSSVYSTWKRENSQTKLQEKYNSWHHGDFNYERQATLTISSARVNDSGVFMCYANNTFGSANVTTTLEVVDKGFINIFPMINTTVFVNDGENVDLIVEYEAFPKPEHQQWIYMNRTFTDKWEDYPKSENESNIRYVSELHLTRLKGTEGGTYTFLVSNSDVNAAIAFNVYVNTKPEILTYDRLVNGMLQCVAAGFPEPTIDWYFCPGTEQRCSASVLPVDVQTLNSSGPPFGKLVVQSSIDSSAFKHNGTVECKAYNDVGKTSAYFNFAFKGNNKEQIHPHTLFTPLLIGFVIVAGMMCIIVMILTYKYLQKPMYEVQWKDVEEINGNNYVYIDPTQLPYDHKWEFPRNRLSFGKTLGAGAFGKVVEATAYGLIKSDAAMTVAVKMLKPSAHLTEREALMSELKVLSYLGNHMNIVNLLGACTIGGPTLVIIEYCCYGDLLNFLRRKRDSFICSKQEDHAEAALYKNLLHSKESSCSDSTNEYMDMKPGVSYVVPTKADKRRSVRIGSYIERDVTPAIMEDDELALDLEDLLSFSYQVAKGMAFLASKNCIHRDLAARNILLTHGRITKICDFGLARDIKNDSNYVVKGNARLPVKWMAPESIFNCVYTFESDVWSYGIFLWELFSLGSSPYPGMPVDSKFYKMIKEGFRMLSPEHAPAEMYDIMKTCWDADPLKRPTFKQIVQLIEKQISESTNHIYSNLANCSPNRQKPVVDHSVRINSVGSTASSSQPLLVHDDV

[5] = target: T5, 382 unique human kinases (Homo sapiens, UniProt Q9UM73, L1196M); conditions: ALK (L1196M), 10 uM; for remaining activity at 10 µM: read-out: % Enzyme Activity (relative to DMSO controls)
T5 construct: purchased Reaction Biology (HotSpot contract assay)
T5 sequence (Q9UM73 19-1620 L1196M): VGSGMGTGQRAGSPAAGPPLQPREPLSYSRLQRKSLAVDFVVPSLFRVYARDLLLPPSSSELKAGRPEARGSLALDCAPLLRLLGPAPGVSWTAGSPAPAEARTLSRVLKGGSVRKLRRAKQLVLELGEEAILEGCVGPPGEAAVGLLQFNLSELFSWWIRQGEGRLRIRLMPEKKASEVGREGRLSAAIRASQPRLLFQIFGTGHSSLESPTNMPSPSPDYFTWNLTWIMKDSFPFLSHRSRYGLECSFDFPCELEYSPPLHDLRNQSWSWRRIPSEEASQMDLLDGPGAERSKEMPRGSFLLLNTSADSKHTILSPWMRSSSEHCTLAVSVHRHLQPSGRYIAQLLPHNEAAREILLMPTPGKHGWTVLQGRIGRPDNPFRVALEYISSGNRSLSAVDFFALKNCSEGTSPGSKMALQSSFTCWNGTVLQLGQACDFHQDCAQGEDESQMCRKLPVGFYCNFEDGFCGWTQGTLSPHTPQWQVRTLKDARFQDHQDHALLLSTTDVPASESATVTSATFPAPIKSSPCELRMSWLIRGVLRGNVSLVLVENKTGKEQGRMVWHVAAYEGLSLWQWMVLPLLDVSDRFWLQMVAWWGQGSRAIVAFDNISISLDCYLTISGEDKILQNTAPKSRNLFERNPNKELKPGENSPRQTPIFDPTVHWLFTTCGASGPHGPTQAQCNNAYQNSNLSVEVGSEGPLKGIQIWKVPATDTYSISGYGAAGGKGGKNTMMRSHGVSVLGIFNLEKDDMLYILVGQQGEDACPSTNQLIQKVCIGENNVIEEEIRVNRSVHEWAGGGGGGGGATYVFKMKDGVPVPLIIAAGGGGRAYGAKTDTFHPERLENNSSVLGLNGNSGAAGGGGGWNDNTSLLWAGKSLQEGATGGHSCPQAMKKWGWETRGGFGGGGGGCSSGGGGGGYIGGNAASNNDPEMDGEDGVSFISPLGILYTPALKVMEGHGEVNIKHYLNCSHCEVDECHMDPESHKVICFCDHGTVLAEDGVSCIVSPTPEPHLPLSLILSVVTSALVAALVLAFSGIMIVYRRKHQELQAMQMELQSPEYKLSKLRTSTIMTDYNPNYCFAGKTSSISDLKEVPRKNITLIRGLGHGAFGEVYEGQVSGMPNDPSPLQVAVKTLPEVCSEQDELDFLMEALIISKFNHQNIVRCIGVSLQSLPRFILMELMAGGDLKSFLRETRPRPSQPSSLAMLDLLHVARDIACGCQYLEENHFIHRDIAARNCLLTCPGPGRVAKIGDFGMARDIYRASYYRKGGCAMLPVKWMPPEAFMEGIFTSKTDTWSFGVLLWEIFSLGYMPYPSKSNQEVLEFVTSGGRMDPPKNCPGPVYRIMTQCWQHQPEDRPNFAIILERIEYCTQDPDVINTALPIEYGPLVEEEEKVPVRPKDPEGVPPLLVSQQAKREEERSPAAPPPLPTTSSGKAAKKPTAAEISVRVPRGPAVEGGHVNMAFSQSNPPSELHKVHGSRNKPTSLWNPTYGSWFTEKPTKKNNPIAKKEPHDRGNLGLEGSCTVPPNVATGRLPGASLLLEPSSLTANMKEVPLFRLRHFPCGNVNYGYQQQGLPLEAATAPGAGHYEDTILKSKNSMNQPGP

[6] = target: T6, 382 unique human kinases (Homo sapiens, UniProt Q9H093); conditions: SNARK/NUAK2, 10 uM; for remaining activity at 10 µM: read-out: % Enzyme Activity (relative to DMSO controls)
T6 construct: purchased Reaction Biology (HotSpot contract assay)
T6 sequence (Q9H093 1-628): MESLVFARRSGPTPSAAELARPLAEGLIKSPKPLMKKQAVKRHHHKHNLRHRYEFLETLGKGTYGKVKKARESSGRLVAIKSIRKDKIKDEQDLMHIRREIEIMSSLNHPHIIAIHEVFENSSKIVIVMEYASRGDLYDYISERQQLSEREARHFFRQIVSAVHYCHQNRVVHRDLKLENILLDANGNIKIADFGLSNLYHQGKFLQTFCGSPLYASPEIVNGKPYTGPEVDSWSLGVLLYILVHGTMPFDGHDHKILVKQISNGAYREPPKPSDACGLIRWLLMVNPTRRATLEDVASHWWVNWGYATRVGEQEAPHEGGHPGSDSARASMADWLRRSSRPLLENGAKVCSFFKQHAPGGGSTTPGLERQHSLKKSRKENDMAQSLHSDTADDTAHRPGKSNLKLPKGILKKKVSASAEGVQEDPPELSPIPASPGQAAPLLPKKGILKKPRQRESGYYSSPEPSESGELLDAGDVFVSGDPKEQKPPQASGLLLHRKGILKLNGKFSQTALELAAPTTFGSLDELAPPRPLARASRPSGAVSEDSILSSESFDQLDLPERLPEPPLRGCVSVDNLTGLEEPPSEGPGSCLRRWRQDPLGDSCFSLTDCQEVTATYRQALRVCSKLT

[7] = target: T7, 382 unique human kinases (Homo sapiens, UniProt Q5S007); conditions: LRRK2, [ATP] 30 µM, compound 10 uM; for remaining activity at 10 µM: read-out: % Enzyme Activity (relative to DMSO controls)
T7 construct: purchased Reaction Biology (HotSpot contract assay)

[8] = target: T8, 382 unique human kinases (Homo sapiens, UniProt P15056); conditions: BRAF, 10 uM; for remaining activity at 10 µM: read-out: % Enzyme Activity (relative to DMSO controls)
T8 construct: purchased Reaction Biology (HotSpot contract assay)
T8 sequence (P15056 whole entry): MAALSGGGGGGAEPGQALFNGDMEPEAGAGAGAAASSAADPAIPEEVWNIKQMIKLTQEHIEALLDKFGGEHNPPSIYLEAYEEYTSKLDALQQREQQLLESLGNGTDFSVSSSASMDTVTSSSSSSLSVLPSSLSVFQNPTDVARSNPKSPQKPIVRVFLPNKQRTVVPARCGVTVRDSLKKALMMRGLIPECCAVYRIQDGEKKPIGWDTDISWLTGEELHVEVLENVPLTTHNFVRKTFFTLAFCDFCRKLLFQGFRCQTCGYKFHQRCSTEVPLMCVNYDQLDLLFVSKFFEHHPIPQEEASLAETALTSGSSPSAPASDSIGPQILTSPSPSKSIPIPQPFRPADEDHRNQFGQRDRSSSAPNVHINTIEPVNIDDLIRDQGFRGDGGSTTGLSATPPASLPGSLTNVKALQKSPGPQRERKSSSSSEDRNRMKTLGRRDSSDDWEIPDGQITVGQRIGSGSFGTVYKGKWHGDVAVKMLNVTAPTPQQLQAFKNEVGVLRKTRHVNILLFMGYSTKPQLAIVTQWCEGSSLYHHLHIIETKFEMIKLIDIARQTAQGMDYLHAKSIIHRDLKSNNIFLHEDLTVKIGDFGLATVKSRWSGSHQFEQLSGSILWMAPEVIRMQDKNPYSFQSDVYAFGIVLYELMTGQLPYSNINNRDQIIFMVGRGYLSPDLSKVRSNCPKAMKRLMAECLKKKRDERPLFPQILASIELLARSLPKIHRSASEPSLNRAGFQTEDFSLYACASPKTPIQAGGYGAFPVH

[9] = target: T9, 382 unique human kinases (Homo sapiens, UniProt Q06418); conditions: TYRO3/SKY, 10 uM; for remaining activity at 10 µM: read-out: % Enzyme Activity (relative to DMSO controls)
T9 construct: purchased Reaction Biology (HotSpot contract assay)
T9 sequence (Q06418 41-890): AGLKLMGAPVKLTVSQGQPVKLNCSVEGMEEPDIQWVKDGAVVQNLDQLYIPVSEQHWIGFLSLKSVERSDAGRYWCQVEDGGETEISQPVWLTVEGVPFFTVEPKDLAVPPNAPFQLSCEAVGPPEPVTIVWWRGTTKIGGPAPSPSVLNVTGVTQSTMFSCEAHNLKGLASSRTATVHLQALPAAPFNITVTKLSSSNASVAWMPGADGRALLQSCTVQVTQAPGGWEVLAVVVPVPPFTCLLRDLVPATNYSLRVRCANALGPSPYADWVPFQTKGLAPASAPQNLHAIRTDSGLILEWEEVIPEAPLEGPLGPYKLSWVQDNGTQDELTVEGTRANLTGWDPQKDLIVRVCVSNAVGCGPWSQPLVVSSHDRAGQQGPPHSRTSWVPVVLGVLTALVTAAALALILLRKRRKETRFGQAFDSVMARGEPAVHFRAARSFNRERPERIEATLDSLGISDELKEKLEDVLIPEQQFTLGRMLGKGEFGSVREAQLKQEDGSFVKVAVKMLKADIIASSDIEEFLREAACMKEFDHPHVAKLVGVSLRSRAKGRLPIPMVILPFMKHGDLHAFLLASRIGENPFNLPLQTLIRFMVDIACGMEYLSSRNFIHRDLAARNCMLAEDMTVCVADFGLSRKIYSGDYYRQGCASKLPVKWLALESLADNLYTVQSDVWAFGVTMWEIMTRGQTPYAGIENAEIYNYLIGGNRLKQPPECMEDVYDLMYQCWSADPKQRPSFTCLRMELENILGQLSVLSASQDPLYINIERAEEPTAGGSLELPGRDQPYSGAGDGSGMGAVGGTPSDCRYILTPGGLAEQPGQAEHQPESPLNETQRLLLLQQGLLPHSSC

T1 sequence (O00238 14-502): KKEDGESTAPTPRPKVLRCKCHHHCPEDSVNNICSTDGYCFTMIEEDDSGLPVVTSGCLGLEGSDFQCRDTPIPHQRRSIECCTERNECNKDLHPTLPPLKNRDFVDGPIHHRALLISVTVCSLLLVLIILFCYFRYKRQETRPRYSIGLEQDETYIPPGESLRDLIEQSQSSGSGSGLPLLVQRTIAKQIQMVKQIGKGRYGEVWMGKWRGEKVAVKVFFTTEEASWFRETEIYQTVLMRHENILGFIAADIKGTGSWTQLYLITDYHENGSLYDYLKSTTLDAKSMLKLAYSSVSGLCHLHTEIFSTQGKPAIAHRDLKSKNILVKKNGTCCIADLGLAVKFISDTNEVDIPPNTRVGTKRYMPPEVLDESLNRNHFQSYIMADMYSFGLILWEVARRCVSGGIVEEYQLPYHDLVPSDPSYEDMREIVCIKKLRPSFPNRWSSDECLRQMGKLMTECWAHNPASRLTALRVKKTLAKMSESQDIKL

Row | Compound | remaining activity at 10 µM [1] [%] | remaining activity at 10 µM [2] [%] | remaining activity at 10 µM [3] [%] | remaining activity at 10 µM [4] [%] | remaining activity at 10 µM [5] [%] | remaining activity at 10 µM [6] [%] | remaining activity at 10 µM [7] [%] | remaining activity at 10 µM [8] [%] | remaining activity at 10 µM [9] [%] | % Enzyme Activity (relative to DMSO controls) [1] [%] | % Enzyme Activity (relative to DMSO controls) [2] [%] | % Enzyme Activity (relative to DMSO controls) [3] [%] | % Enzyme Activity (relative to DMSO controls) [4] [%] | % Enzyme Activity (relative to DMSO controls) [5] [%] | % Enzyme Activity (relative to DMSO controls) [6] [%] | % Enzyme Activity (relative to DMSO controls) [7] [%] | % Enzyme Activity (relative to DMSO controls) [8] [%] | % Enzyme Activity (relative to DMSO controls) [9] [%]
1 | CC(C)c1cc(-c2n[nH]c(=O)n2-c2ccc3c(ccn3C)c2)c(O)cc1O [Ganetespib (STA9090)] | 94.5 | 64.4 | 118 | 67.9 | 70.2 |  |  |  |  |  |  |  |  |  |  |  |  | 
2 | CC(C)c1cc(-c2n[nH]c(=O)n2-c2ccc3c(ccn3C)c2)c(O)cc1O [Ganetespib] |  |  |  |  |  | 100 | 45.9 | 98.1 | 102 |  |  |  |  |  |  |  |  | 
3 | CCNC(=O)c1noc(-c2cc(C(C)C)c(O)cc2O)c1-c1ccc(CN2CCOCC2)cc1 [Luminespib (AUY-922)] | 94.8 | 88.8 | 107 | 91.5 | 100 |  |  |  |  | 93.58 | 88.32 | 106.79 | 91.06 | 98.66 |  |  |  | 
4 | CCNC(=O)c1noc(-c2cc(C(C)C)c(O)cc2O)c1-c1ccc(CN2CCOCC2)cc1 [Luminespib] |  |  |  |  |  | 98.6 | 94.8 | 105 | 107 |  |  |  |  |  | 96.83 | 94.05 | 103.97 | 106.19
